Where a name gives a salt, the structure may show the parent alone.
Columns and labels:
HTR2A [1] = target: T1, HTR2A (Homo sapiens, UniProt P28223); assay: Calcium mobilization assay, HTR2A agonist mode; type: cell-based; settings: for agonist activity at HTR2A: agonist mode
T1 construct: expressed in transfected cells
Method: (§1) Compound activity was analyzed using CBIS data analysis suite (ChemInnovation, CA). For agonist mode assays, percentage activity was calculated using the following formula: % Activity=100%×(mean RFU of test sample−mean RFU of vehicle control)/(mean MAX RFU control ligand −mean RFU of vehicle control).

HTR2A [2] = target: T1, HTR2A; assay: Calcium mobilization assay, HTR2A antagonist mode; type: cell-based
Method: Cell lines were expanded from freezer stocks and seeded into multi-well microplates. Then, the plates were incubated at 37° C. for an appropriate amount of time and loaded with Dye Loading buffer. […] Activity was measured on a FLIPR Tetra. Calcium mobilization was monitored for 2 minutes.

HTR2B [3] = target: T2, HTR2B (Homo sapiens, UniProt P41595); assay: Calcium mobilization assay, HTR2B agonist mode; type: cell-based
T2 construct: expressed in transfected cells
Method: as §1

HTR2B [4] = target: T2, HTR2B; assay: Calcium mobilization assay, HTR2B antagonist mode; type: cell-based
Method: Activation of the GPCR results in the release of calcium from intracellular stores and an increase in dye fluorescence that can be measured.
Cell lines were expanded from freezer stocks and seeded into multi-well microplates. Then, the plates were incubated at 37° C. for an appropriate amount of time and loaded with Dye Loading buffer. To determine compound agonist activity, cells were incubated with the sample to induce a response, and HBSS/20 mM Hepes was added using a FLIPR Tetra (MDS). Activity was measured on a FLIPR Tetra. Calcium mobilization was monitored for 2 minutes.
To determine compound antagonist activity, cells were pre-incubated with the sample followed by an post-incubation administration of the compound with 3×EC80 agonist using FLIPR. Compound antagonist activity was measured on a FLIPR Tetra (MDS) and calcium mobilization was monitored for 2 minutes.
For antagonist mode assays, percentage inhibition was calculated using the following formula: % Inhibition=100%×(1−(mean RFU of test sample−mean RFU of vehicle control)/(mean RFU of EC80 control−mean RFU of vehicle control)).

HTR1A = target: T3, HTR1A (Homo sapiens, UniProt P08908); assay: In vitro functional activity, HTR1A agonist mode; type: cell-based
T3 construct: expressed in transfected cells
T3 sequence (P08908 1-422): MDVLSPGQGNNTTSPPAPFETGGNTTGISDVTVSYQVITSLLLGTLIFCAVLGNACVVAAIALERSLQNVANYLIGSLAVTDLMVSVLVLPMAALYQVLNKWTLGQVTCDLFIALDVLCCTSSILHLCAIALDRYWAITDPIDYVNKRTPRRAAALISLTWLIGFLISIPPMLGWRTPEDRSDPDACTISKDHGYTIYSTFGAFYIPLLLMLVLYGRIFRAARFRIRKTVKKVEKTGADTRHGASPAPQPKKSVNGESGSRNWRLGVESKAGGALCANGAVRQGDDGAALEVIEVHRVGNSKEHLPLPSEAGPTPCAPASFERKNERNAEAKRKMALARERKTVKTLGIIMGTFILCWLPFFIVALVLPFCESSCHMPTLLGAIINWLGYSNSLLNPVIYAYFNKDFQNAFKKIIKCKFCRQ
Method: (§2) Such activity was determined to assess potential neuromodulatory activity and safety liabilities.

HTR1B = target: T4, HTR1B (Homo sapiens, UniProt P28222); assay: In vitro functional activity, HTR1B agonist mode; type: cell-based
T4 construct: expressed in transfected cells
T4 sequence (P28222 whole entry): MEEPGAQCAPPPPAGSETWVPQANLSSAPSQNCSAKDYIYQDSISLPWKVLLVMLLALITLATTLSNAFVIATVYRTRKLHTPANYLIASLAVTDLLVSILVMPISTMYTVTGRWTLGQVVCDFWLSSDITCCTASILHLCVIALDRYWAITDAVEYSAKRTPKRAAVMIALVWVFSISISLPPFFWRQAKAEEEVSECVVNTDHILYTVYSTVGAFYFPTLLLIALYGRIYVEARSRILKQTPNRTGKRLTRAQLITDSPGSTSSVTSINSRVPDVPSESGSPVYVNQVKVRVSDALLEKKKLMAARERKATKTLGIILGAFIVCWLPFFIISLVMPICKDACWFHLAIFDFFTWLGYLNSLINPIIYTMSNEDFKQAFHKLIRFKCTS
Method: as §2

HTR6 = target: T5, HTR6 (Homo sapiens, UniProt P50406); assay: PathHunter beta-Arrestin assay, HTR6 agonist mode; type: cell-based
T5 construct: expressed in transfected cells
T5 sequence (P50406 whole entry): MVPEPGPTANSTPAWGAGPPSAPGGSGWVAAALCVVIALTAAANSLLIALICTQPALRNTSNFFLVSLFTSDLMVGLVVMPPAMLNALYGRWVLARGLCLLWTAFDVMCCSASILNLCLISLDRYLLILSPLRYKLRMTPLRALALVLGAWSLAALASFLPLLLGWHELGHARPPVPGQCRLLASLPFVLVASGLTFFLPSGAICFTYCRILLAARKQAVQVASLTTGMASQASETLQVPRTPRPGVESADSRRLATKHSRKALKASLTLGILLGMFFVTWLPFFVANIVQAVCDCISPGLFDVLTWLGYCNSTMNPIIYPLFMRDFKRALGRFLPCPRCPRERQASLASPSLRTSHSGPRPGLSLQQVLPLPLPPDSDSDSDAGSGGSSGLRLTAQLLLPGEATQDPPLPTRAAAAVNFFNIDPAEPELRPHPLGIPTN
Method: The assay monitors restoration of ß-galactosidase (β-Gal) as a marker of GPCR activation and recruitment of β-Arrestin to the receptor.
3.5 μL of concentrated sample was added to cells and incubated at 37° C. or room temperature for 90 to 180 minutes. Vehicle concentration was 1%.
Assay signal was generated through a single addition of 50% v/v of PathHunter Detection reagent cocktail, followed by a one hour incubation at room temperature. Microplates were read following signal generation with a plate reader set to detect chemiluminescent signals. Compound activity was analyzed using CBIS data analysis suite (ChemInnovation, CA).

SERT = target: T6, SERT (Homo sapiens, UniProt P31645); assay: cell-based; settings: blocker mode; read-out: EC50/IC50, SERT (Blocker)
T6 construct: expressed in transfected cells
Method: (§3) Methods—Monoamine Transporter Assay: Neurotransmitter uptake via transporters was measured using the Neurotransmitter Transporter Uptake Assay Kit from Molecular Devices. […] Increased intracellular fluorescence intensity following uptake of biogenic amine neurotransmitters via transporters is measured and can be run in a kinetic or endpoint mode.
(§4) Compound was added and the mixture was incubated. Following compound incubation, dye was added to the wells and the plate was re-incubated. Microplates were then transferred to a PerkinElmer Envision™ instrument for fluorescence signal detection.
(§5) Compound activity was analyzed using CBIS data analysis (ChemInnovation, CA). For blocker mode assays, percentage inhibition was calculated using the following formula: % Inhibition=100%×(1−(mean RLU of test sample−mean RLU of vehicle control)/(mean RLU of positive control−mean RLU of vehicle control)).

DAT = target: T7, DAT (Homo sapiens, UniProt Q01959); assay: Neurotransmitter transporter uptake assay, DAT blocker mode; type: cell-based
T7 construct: expressed in transfected cells
T7 sequence (Q01959 whole entry): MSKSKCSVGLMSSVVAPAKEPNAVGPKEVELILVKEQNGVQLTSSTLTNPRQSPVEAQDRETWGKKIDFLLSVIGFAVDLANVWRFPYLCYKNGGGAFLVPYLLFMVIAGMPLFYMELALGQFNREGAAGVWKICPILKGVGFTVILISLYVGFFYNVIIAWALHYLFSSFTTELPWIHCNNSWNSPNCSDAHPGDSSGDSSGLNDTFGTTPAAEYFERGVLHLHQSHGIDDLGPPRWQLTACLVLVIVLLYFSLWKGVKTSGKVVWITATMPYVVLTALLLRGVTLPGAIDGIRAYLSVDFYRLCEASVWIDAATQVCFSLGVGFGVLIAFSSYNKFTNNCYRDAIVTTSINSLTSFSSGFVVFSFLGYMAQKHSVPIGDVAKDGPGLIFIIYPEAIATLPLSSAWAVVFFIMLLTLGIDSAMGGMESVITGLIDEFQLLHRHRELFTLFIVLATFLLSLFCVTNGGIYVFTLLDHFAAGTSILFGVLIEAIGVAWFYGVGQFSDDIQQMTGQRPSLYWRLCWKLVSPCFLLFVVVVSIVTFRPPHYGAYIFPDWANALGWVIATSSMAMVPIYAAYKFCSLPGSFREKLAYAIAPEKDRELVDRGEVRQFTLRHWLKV
Method: as §3, §4, §5

NET = target: T8, NET (Homo sapiens, UniProt P23975); assay: Neurotransmitter transporter uptake assay, NET blocker mode; type: cell-based
T8 construct: expressed in transfected cells
Method: as §3, §4, §5

MAOA = target: T9, MAOA (Homo sapiens, UniProt P21397); assay: MAO-A enzyme assay (kynuramine substrate); type: biochemical
T9 construct: purchased Sigma
T9 sequence (P21397 1-527): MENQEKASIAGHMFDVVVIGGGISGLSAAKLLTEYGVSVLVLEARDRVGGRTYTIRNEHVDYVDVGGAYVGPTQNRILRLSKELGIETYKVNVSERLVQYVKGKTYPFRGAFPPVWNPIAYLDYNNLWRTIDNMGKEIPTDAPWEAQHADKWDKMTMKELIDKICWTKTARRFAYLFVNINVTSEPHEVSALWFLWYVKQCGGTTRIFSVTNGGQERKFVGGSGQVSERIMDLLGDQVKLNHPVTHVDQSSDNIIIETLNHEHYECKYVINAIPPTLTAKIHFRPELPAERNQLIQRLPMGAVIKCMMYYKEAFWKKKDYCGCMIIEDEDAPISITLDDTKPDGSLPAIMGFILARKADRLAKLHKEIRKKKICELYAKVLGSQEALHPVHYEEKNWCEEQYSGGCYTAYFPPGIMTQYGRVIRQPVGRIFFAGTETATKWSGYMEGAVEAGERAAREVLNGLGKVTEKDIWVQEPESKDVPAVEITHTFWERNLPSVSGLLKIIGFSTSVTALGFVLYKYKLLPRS
Method: Methods—Enzyme Assays: Enzymatic activity was determined by measuring either the consumption of substrate or production of product over time. For MAO-A (Sigma), enzyme and test compound were preincubated for 15 minutes at 37° C. before substrate addition. The reaction was initiated by addition of kynuramine and incubated at 37° ° C. for 30 minutes. The reaction was terminated by addition of NaOH. The amount of 4-hydroxyquinoline formed was determined through spectrofluorimetric readout with the emission detection at 380 nm and excitation wavelength 310 nm.

CAV1.2 = target: T10, CAV1.2 (Homo sapiens, UniProt Q13936); assay: FLIPR membrane potential ion channel assay, CAV1.2 blocker; type: cell-based
T10 construct: expressed in transfected cells
Method: (§6) Methods—Ion Channel Assay: Membrane potential changes were measured using the FLIPR® Membrane potential Assay Kit. A fluorescent indicator dye in combination with a quencher was used to reflect real-time membrane potential changes associated with ion channel activation and ion transporter proteins. Calcium channel CAV1.2, potassium channel hERG, and sodium channel NAV1.5 were tested.
(§7) To determine agonist and antagonist activity, cell lines were expanded from freezer stocks, seeded into multi-well microplates, and incubated at 37° C. Cells were then loaded with dye and incubated again.
(§8) For agonist determination, cells were incubated with the sample a different dilutions to induce a response. For antagonist determination, cells were pre-incubated with the sample at different dilutions. Following dye administration, the sample was added to the cells in the presence of EC80 agonist and then re-incubated at room temperature in the dark.
(§9) For antagonist mode assays, percentage inhibition was calculated using the following formula: % Inhibition=100%×(1−(mean RLU of test sample−mean RLU of vehicle control)/(mean RLU of EC80 control−mean RLU of vehicle control)).

hERG = target: T11, hERG (Homo sapiens, UniProt Q12809); assay: FLIPR membrane potential ion channel assay, hERG blocker; type: cell-based
T11 construct: expressed in transfected cells
Method: as §6, §7, §8, §9

NAV1.5 = target: T12, NAV1.5 (Homo sapiens, UniProt Q14524); assay: FLIPR membrane potential ion channel assay, NAV1.5 blocker; type: cell-based
T12 construct: expressed in transfected cells
T12 sequence (Q14524 whole entry): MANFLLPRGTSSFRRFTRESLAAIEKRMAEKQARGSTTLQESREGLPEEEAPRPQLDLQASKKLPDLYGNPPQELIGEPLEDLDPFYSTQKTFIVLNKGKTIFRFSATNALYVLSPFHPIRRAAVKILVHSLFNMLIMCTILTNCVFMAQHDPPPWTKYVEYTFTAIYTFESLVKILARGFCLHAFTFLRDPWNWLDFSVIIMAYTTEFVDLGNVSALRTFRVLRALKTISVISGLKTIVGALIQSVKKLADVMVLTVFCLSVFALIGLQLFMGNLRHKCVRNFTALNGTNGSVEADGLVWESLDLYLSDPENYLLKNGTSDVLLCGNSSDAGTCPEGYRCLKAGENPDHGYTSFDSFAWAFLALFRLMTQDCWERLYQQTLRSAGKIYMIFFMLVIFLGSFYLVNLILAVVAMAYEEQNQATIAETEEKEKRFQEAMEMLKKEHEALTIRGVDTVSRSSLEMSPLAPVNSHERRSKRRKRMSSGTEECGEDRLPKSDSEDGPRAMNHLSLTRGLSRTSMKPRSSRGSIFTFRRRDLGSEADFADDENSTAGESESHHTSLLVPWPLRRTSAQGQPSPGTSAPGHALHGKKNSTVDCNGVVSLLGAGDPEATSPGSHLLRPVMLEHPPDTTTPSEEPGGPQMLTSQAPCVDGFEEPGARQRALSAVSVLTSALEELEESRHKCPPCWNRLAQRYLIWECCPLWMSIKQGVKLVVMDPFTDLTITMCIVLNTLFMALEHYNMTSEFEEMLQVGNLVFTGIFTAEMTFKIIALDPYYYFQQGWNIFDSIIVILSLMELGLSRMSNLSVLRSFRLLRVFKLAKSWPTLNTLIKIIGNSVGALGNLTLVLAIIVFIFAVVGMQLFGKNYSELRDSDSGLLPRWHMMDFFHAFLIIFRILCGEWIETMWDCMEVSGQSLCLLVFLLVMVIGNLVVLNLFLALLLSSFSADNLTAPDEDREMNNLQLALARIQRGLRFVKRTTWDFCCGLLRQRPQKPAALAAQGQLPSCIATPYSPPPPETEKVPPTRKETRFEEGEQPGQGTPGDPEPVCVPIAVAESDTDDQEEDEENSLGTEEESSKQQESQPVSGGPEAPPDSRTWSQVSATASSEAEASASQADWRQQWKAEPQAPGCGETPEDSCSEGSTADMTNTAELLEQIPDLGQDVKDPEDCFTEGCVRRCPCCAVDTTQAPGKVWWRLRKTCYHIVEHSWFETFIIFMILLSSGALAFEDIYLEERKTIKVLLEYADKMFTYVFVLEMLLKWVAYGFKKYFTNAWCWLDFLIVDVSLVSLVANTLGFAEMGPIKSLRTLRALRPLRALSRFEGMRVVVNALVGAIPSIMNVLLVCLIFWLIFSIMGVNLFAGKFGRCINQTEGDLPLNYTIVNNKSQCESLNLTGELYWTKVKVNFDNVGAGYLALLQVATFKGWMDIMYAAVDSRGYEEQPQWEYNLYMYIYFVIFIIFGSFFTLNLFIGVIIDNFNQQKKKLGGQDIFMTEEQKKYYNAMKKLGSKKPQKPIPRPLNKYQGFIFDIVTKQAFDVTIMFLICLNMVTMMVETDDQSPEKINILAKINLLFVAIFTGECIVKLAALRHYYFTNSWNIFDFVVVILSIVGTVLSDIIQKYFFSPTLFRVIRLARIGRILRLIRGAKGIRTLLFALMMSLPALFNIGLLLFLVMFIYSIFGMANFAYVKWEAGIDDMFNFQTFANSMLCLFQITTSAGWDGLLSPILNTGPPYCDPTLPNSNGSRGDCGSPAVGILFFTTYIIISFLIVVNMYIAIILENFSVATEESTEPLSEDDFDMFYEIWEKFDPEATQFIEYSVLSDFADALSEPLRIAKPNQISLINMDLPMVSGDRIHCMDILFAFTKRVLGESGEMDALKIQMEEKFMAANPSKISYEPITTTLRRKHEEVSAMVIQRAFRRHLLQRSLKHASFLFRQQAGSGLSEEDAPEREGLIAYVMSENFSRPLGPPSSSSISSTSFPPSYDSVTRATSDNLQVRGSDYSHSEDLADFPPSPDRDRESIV
Method: as §6, §7, §8, §9

ADRA1A = target: T13, ADRA1A (Homo sapiens, UniProt P35348); assay: In vitro functional activity, ADRA1A antagonist mode; type: cell-based
T13 construct: expressed in transfected cells
T13 sequence (P35348 1-466): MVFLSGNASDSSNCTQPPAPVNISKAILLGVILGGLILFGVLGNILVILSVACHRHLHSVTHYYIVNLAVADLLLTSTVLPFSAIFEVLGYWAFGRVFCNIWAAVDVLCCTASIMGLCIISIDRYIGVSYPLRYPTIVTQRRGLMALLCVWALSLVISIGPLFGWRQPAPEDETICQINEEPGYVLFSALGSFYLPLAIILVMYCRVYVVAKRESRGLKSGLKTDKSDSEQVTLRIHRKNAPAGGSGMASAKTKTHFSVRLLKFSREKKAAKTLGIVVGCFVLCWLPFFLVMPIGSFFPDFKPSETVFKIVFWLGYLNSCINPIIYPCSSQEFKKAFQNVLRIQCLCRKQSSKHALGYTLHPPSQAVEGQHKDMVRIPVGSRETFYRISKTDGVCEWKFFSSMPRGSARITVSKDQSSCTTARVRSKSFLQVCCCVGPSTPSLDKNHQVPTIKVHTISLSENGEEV
Method: (§10) The assay monitors the activation of a GPCR via Gi and Gs secondary messenger signaling, using ß-Gal as a functional reporter. […] To determine Gi/Gs agonism, media was aspirated from cells and replaced with 15 μL 2:1 HBSS/10 mM HEPES:cAMP XS+Ab reagent. Concentrated (4×) test compound in assay buffer was added to cells and incubated at 37° C. or room temperature for 30 or 60 minutes. For Gi agonist activation, cells were incubated with EC80 forskolin in addition to a test compound. Vehicle concentration was 1%.

ADRA2A = target: T14, ADRA2A (Homo sapiens, UniProt P08913); assay: In vitro functional activity, ADRA2A antagonist mode; type: cell-based
T14 construct: expressed in transfected cells
T14 sequence (P08913 1-465): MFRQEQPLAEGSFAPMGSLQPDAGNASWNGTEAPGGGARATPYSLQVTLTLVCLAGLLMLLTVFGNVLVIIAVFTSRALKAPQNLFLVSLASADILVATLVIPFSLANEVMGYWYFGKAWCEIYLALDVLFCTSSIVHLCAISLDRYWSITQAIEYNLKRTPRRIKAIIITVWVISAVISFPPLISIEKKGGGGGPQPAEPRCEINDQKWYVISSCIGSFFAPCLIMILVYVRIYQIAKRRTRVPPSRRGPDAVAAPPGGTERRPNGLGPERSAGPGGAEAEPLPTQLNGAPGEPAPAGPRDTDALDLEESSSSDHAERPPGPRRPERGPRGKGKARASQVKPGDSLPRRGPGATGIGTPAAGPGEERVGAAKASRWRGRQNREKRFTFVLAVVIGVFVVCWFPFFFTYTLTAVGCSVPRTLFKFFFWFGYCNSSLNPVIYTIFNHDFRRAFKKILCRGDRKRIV
Method: as §10

DRD2S = target: T15, DRD2S (Homo sapiens, UniProt P14416); assay: HitHunter cAMP assay, DRD2S agonist mode; type: cell-based
T15 construct: expressed in transfected cells
T15 sequence (P14416 1-414 isoform P14416-2): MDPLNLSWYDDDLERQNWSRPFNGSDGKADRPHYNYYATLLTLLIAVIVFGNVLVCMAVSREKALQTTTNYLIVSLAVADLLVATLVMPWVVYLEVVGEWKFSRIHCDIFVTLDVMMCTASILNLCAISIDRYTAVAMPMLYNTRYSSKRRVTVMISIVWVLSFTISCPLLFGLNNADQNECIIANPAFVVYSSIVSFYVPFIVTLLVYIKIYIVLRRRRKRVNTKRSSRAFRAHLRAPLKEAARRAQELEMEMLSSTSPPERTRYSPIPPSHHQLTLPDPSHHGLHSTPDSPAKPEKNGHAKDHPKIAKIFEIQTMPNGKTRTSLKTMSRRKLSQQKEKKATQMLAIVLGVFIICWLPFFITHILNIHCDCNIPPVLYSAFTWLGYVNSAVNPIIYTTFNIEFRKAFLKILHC
Method: as §10
Compound activity was analyzed using CBIS data analysis suite (ChemInnovation, CA). For Gs agonist mode assays, percentage activity was calculated using the following formula: % Activity=100%×(mean RLU of test sample−mean RLU of vehicle control)/(mean RLU of MAX control−mean RLU of vehicle control).
For Gi agonist mode assays, percentage activity was calculated using the following formula: % Activity=100%×(1−(mean RLU of test sample−mean RLU of MAX control)/(mean RLU of vehicle control−mean RLU of MAX control)).

HRH1 = target: T16, HRH1 (Homo sapiens, UniProt P35367); assay: cell-based; type: cell-based; settings: antagonist mode; for IC50: read-out: EC50/IC50, HRH1 (Antagonist)
T16 construct: expressed in transfected cells
T16 sequence (P35367 whole entry): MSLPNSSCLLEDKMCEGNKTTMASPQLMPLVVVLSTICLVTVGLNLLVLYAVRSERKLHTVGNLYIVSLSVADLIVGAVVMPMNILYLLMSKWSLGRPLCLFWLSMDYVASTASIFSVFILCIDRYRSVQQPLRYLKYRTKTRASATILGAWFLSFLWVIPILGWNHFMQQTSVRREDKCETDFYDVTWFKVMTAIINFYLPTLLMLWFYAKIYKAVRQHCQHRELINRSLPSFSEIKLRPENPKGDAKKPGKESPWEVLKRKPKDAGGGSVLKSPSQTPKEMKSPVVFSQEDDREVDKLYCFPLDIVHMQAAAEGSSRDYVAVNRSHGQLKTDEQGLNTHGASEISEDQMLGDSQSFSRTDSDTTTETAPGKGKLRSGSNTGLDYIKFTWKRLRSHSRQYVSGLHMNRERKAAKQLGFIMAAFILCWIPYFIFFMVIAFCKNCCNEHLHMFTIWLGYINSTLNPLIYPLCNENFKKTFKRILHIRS
Method: as §2

T1 sequence (P28223 whole entry): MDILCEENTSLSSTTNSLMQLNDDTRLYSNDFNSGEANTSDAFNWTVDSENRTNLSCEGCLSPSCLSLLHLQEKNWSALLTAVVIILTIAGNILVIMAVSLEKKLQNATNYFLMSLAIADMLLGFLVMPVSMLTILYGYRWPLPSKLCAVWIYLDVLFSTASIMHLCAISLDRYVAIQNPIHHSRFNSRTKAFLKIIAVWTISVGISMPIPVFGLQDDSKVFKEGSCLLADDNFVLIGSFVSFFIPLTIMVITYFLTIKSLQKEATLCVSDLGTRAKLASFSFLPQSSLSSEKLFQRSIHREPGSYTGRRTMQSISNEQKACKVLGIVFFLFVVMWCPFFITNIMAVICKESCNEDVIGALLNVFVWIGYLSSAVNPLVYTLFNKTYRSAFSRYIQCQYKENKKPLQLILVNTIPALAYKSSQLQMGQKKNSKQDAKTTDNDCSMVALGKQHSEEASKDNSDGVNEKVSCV

| Compound | EC50 (HTR2A [1]) | agonist activity at HTR2A (HTR2A [1]) | IC50 (HTR2A [2]) | EC50 (HTR2B [3]) | IC50 (HTR2B [4]) | EC50 (HTR1A) | EC50 (HTR1B) | EC50 (HTR6) | IC50 (SERT) | IC50 (DAT) | IC50 (NET) | IC50 (MAOA) | IC50 (CAV1.2) | IC50 (hERG) | IC50 (NAV1.5) | IC50 (ADRA1A) | IC50 (ADRA2A) | EC50 (DRD2S) | IC50 (HRH1) | agonistic activity for dopamine receptor D2 short isoform (DRD2S; agonist mode) | further results |
| --- | --- | --- | --- | --- | --- | --- | --- | --- | --- | --- | --- | --- | --- | --- | --- | --- | --- | --- | --- | --- | --- |
| C=CCN(CCc1c[nH]c2ccc(OC)cc12)C(C)C [ASR-3001, N-isopropyl-N-(2-(5-methoxy-1H-indol-3-yl)ethyl)prop-2-en-1-amine hydrochloride] | 0.00985 µM | potent agonist activity | 0.0646 µM | 0.0874 µM | 0.0511 µM | 0.642 µM | 0.0468 µM | 0.42 µM | 6.84 µM | > 10 µM | > 10 µM | > 10 µM | > 10 µM | > 10 µM | > 10 µM | > 10 µM | > 10 µM | > 10 µM | > 10 µM | – | – |
| C=CCN(CCc1c[nH]c2ccccc12)C(C)C [ASR-3003, N-(2-(1H-indol-3-yl)ethyl)-N-isopropylprop-2-en-1-amine hydrochloride] | 0.462 µM | potent agonist activity | 1.41 µM | 2.54 µM | 0.507 µM | > 10 µM | 0.813 µM | 4.26 µM | 2.37 µM | > 10 µM | > 10 µM | > 10 µM | > 10 µM | > 10 µM | > 10 µM | > 10 µM | 3.72 µM | 0.183 µM | 6.29 µM | agonistic activity | potency for DRD2S (DRD2S; agonist mode): nanomolar level; antagonistic effects at histamine receptor H1 (HRH1): antagonistic effects |
| C=CCN(CCc1c(C)[nH]c2ccccc12)C(C)C [ASR-3002, N-isopropyl-N-(2-(2-methyl-1H-indol-3-yl)ethyl)prop-2-en-1-amine hydrochloride] | 2.6 µM | potent agonist activity | 4.13 µM | 1.28 µM | 0.498 µM | > 10 µM | 4.95 µM | 1.68 µM | > 10 µM | > 10 µM | > 10 µM | > 10 µM | > 10 µM | > 10 µM | > 10 µM | 8.52 µM | 0.383 µM | 4.48 µM | > 10 µM | agonistic activity | – |

Source: patent US12239632B2, “Asymmetric allyl tryptamines” (Alexander Shulgin Research Institute, Inc., priority 2021, dated 2025)
